# How the values were obtained:
# Assay type in all cases: cell-based
# [1] = system: Pseudomonas aeruginosa K599/61; settings: P. aeruginosa K599/61; BHI agar dilution, 20-24 hours; unit assumed
# Procedure: (§1) The activity of the compounds of the present invention was tested against a wide variety of bacteria using standard assay procedures. Minimum inhibitory concentrations (MICs) were determined by the agar dilution method, described below, using Brain Heart Infusion agar.
# (§2) Twelve petri dishes were prepared, each containing successive aqueous 2-fold dilutions of the test compounds mixed with 10 mL of sterilized Brain Heart Infusion (BHI) agar. Each plate was inoculated with 100-fold (or 10-fold, for slow-growing strains such as Micrococcus and Streptococcus) dilutions of up to 32 different microorganisms using a Steers replicator block calibrated to deliver approximately 10^4 colony forming units (CFUs). The inoculated plates were incubated at about 35°-37° C. for approximately 20-24 hours. In addition, a control plate, using BHI agar containing no test compound, was prepared and incubated at the beginning and at the end of each test. Ciprofloxacin was used as the reference antibiotic.
# (§3) The MIC was defined as the lowest concentration of test compound yielding no growth (a slight haze or sparsely isolated colonies at the inoculum spot as compared to the growth control contaning no test compound.
# Escherichia coli DC-2 = test: In Vitro Antibacterial Activity, agar dilution MIC; settings: E. coli DC-2; BHI agar dilution, 20-24 hours; unit assumed
# Procedure: as §1, §2, §3
# [2] = system: Staphylococcus aureus CMX 553; test: In Vitro Antibacterial Activity, agar dilution MIC; settings: S. aureus CMX 553; BHI agar dilution, 20-24 hours; unit assumed
# Procedure: as §1, §2, §3
# [3] = system: Streptococcus agalactaciae CMX 508; test: In Vitro Antibacterial Activity, agar dilution MIC; settings: S. agalactaciae CMX 508; BHI agar dilution, 20-24 hours; unit assumed
# Procedure: as §1, §2, §3
# Escherichia coli JUHL = test: In Vitro Antibacterial Activity, agar dilution MIC; settings: E. coli JUHL; BHI agar dilution, 20-24 hours; unit assumed
# Procedure: as §1, §2, §3
# [4] = system: Staphylococcus aureus NCTC 10649; test: In Vitro Antibacterial Activity, agar dilution MIC; settings: S. aureus NCTC 10649; BHI agar dilution, 20-24 hours; unit assumed
# Procedure: as §1, §2, §3
# [5] = system: Streptococcus pyogenes 2548 INDUC; test: In Vitro Antibacterial Activity, agar dilution MIC; settings: S. pyogenes 2548 INDUC; BHI agar dilution, 20-24 hours; unit assumed
# Procedure: as §1, §2, §3
# Pseudomonas cepacia 2961 = test: In Vitro Antibacterial Activity, agar dilution MIC; settings: P. cepacia 2961; BHI agar dilution, 20-24 hours; unit assumed
# Procedure: as §1, §2, §3
# Escherichia coli KNK 437 = test: In Vitro Antibacterial Activity, agar dilution MIC; settings: E. coli KNK 437; BHI agar dilution, 20-24 hours; unit assumed
# Procedure: as §1, §2, §3
# [6] = system: Micrococcus luteus ATCC 4698; test: In Vitro Antibacterial Activity, agar dilution MIC; settings: M. luteus ATCC 4698; BHI agar dilution, 20-24 hours; unit assumed
# Procedure: as §1, §2, §3
# [7] = system: Staphylococcus aureus ATCC 6538P; test: In Vitro Antibacterial Activity, agar dilution MIC; settings: S. aureus ATCC 6538P; BHI agar dilution, 20-24 hours; unit assumed
# Procedure: as §1, §2, §3
# Acinetobacter SP CMX 699 = test: In Vitro Antibacterial Activity, agar dilution MIC; settings: BHI agar dilution, 20-24 hours, unit assumed
# Procedure: as §1, §2, §3
# [8] = system: Pseudomonas aeruginosa 5263; test: In Vitro Antibacterial Activity, agar dilution MIC; settings: P. aeruginosa 5263; BHI agar dilution, 20-24 hours; unit assumed
# Procedure: as §1, §2, §3
# [9] = system: Pseudomonas aeruginosa K799/WT; test: In Vitro Antibacterial Activity, agar dilution MIC; settings: P. aeruginosa K799/WT; BHI agar dilution, 20-24 hours; unit assumed
# Procedure: as §1, §2, §3
# [10] = system: Pseudomonas aeruginosa 2862; test: In Vitro Antibacterial Activity, agar dilution MIC; settings: P. aeruginosa 2862; BHI agar dilution, 20-24 hours; unit assumed
# Procedure: as §1, §2, §3
# [11] = system: Micrococcus luteus ATCC 9341; test: In Vitro Antibacterial Activity, agar dilution MIC; settings: M. luteus ATCC 9341; BHI agar dilution, 20-24 hours; unit assumed
# Procedure: as §1, §2, §3
# [12] = system: Staphylococcus aureus A5177; test: In Vitro Antibacterial Activity, agar dilution MIC; settings: S. aureus A5177; BHI agar dilution, 20-24 hours; unit assumed
# Procedure: as §1, §2, §3
# Escherichia coli H560 = test: In Vitro Antibacterial Activity, agar dilution MIC; settings: E. coli H560; BHI agar dilution, 20-24 hours; unit assumed
# Procedure: as §1, §2, §3
# [13] = system: Streptococcus pyogenes EES61; test: In Vitro Antibacterial Activity, agar dilution MIC; settings: S. pyogenes EES61; BHI agar dilution, 20-24 hours; unit assumed
# Procedure: as §1, §2, §3
# [14] = system: Pseudomonas aeruginosa BMH10; test: In Vitro Antibacterial Activity, agar dilution MIC; settings: P. aeruginosa BMH10; BHI agar dilution, 20-24 hours; unit assumed
# Procedure: as §1, §2, §3
# [15] = system: Streptococcus bovis A5169; test: In Vitro Antibacterial Activity, agar dilution MIC; settings: S. bovis A5169; BHI agar dilution, 20-24 hours; unit assumed
# Procedure: as §1, §2, §3
# [16] = system: Enterococcus faecium ATCC 8043; test: In Vitro Antibacterial Activity, agar dilution MIC; settings: E. faecium ATCC 8043; BHI agar dilution, 20-24 hours; unit assumed
# Procedure: as §1, §2, §3
# Escherichia coli SS = test: In Vitro Antibacterial Activity, agar dilution MIC; settings: E. coli SS; BHI agar dilution, 20-24 hours; unit assumed
# Procedure: as §1, §2, §3
# [17] = system: Pseudomonas aeruginosa A5007; test: In Vitro Antibacterial Activity, agar dilution MIC; settings: P. aeruginosa A5007; BHI agar dilution, 20-24 hours; unit assumed
# Procedure: as §1, §2, §3
# [18] = system: Staphylococcus aureus A-5278; test: In Vitro Antibacterial Activity, agar dilution MIC; settings: S. aureus A-5278; BHI agar dilution, 20-24 hours; unit assumed
# Procedure: as §1, §2, §3
# [19] = system: Staphylococcus aureus 1775; test: In Vitro Antibacterial Activity, agar dilution MIC; settings: S. aureus 1775; BHI agar dilution, 20-24 hours; unit assumed
# Procedure: as §1, §2, §3
# [20] = system: Enterobacter aerogenes ATCC 13048; test: In Vitro Antibacterial Activity, agar dilution MIC; settings: E. aerogenes ATCC 13048; BHI agar dilution, 20-24 hours; unit assumed
# Procedure: as §1, §2, §3
# [21] = system: Providencia stuartii CMX 640; test: In Vitro Antibacterial Activity, agar dilution MIC; settings: P. stuartii CMX 640; BHI agar dilution, 20-24 hours; unit assumed
# Procedure: as §1, §2, §3
# [22] = system: Staphylococcus aureus 642A; test: In Vitro Antibacterial Activity, agar dilution MIC; settings: S. aureus 642A; BHI agar dilution, 20-24 hours; unit assumed
# Procedure: as §1, §2, §3
# [23] = system: Streptococcus pyogenes 930 CONST; test: In Vitro Antibacterial Activity, agar dilution MIC; settings: S. pyogenes 930 CONST; BHI agar dilution, 20-24 hours; unit assumed
# Procedure: as §1, §2, §3
# [24] = system: Klebsiella pneumoniae ATCC 8045; test: In Vitro Antibacterial Activity, agar dilution MIC; settings: K. pneumoniae ATCC 8045; BHI agar dilution, 20-24 hours; unit assumed
# Procedure: as §1, §2, §3
# [25] = system: Staphylococcus epidermidis 3519; test: In Vitro Antibacterial Activity, agar dilution MIC; settings: S. epidermidis 3519; BHI agar dilution, 20-24 hours; unit assumed
# Procedure: as §1, §2, §3
# Staphylococcus aureus 45 = test: In Vitro Antibacterial Activity, agar dilution MIC; settings: S. aureus 45; BHI agar dilution, 20-24 hours; unit assumed
# Procedure: as §1, §2, §3
SMILES,MIC values [1] [µg/mL],MIC values (Escherichia coli DC-2) [µg/mL],MIC values [2] [µg/mL],MIC values [3] [µg/mL],MIC values (Escherichia coli JUHL) [µg/mL],MIC values [4] [µg/mL],MIC values [5] [µg/mL],MIC values (Pseudomonas cepacia 2961) [µg/mL],MIC values (Escherichia coli KNK 437) [µg/mL],MIC values [6] [µg/mL],MIC values [7] [µg/mL],MIC values (Acinetobacter SP CMX 699) [µg/mL],MIC values [9] [µg/mL],MIC values [11] [µg/mL],MIC values [12] [µg/mL],MIC values (Escherichia coli H560) [µg/mL],MIC values [13] [µg/mL],MIC values [14] [µg/mL],MIC values [15] [µg/mL],MIC values [16] [µg/mL],further results
C[C@@H]1COc2c(N3CCC4(CC3)OCCCO4)c(F)cc3c(=O)c(C(=O)O)cn1c23 [Example 330],0.78,12.5,0.2,0.78,1.56,0.1,0.78,12.5,12.5,0.78,0.1,3.1,12.5,1.56,0.2,1.56,1.56,12.5,3.1,0.78,MIC values [8]: > 100 µg/mL; MIC values [10]: > 100 µg/mL; MIC values (Escherichia coli SS): 0.01 µg/mL; MIC values [17]: 12.5 µg/mL; MIC values [18]: 0.1 µg/mL; MIC values [19]: 6.2 µg/mL; MIC values [20]: 6.2 µg/mL; MIC values [21]: 50 µg/mL; MIC values [22]: 0.2 µg/mL; MIC values [23]: 1.56 µg/mL; MIC values [24]: 0.78 µg/mL; MIC values [25]: 0.2 µg/mL
"Cl.Cl.NCC1COC2(CCN(c3cc4c(cc3F)c(=O)c(C(=O)O)cn4-c3ccc(F)cc3F)C2)O1 (centres unmarked) [Example 159, 1-(2,4-difluorophenyl)-7-(2-aminomethyl-1,4-dioxa-7-azaspiro[4.4]non-7-yl)-6-fluoro-1,4-dihydro-4-oxo-3-quinolinecarboxylic acid dihydrochloride]",0.39,6.2,0.78,0.78,0.39,0.2,0.39,50,3.1,6.2,0.2,0.78,3.1,12.5,0.39,0.2,0.39,3.1,0.78,0.78,MIC values (Escherichia coli SS): 0.02 µg/mL; MIC values [17]: 3.1 µg/mL; MIC values [19]: 100 µg/mL; MIC values [20]: 0.78 µg/mL; MIC values [21]: 25 µg/mL; MIC values [22]: 0.39 µg/mL; MIC values [23]: 0.39 µg/mL; MIC values [24]: 0.39 µg/mL; MIC values [25]: 0.78 µg/mL; MIC values (Staphylococcus aureus 45): 0.78 µg/mL
